Reference: patent US5212286A, “Atrial Natriuretic/vasodilator peptide compounds” (Scios Nova Inc., priority 1986, dated 1993)
Positions of bridges follow the written chain, without caps; N, C: chain ends. Non-standard residues stand in square brackets, D forms with d. Residues, ends and D or L forms follow the SMILES beside them.

Columns and labels:
[1] = system: ANVP receptor sites on cultured bovine vascular smooth muscle cells; assay: Displacement of specific [125I]rANVP(126-150) binding on cultured smooth muscle cells; details: Series B smooth muscle cells; concentration of half-maximal displacement
Excerpt: Specific and saturable binding is a necessary component of a hormone/receptor interaction.
Various concentrations of the peptides described were examined for […]

intact rats = assay: Natriuretic and diuretic effects in intact rats (bolus injection); type: in vivo, rat
Experimental: Synthetic ANVP compounds […] hANVP(127-151) were also found to be natriuretic in the intact rat. These compounds were administered as a bolus injection to Inactin anesthetized rats (100 mg/kg, average weight 399 g) which were maintained on a constant infusion of normal saline at 2.2 ml/hr. […] Data are expressed as mean±SE.

[2] = system: precontracted rabbit or rat aortic preparations; assay: Vasorelaxant potency on precontracted aortic rings; details: for vasorelaxant potency in words: precontracted vascular preparations; for IC50: thoracic aortic segments precontracted with histamine or norepinephrine, read-out: IC50 (concentration producing half-maximal relaxation of the precontracted tissue)
Experimental: Synthetic ANVP compounds were compared to partially purified (gel filtration step) and purified (HPLC) native ANVP compounds (See FIGS. 3A-D) for their ability to relax histamine-contracted aortic rings. Rings were suspended in 10 ml aerated Kreb's buffer under 1.5 gm passive tension. Rings were precontracted with 5 X 10^-6 M histamine, washed and allowed to return to baseline tension, as described ([…]., supra). Increasing amounts of purified or synthetic ANVP compounds were then added in cumulative fashion. […] The relaxation effects of various ANVP compounds on precontracted rabbit or rat aortic preparations are shown in Table III. | Thoracic aortic segments were precontracted with histamine or | norepinephrine as previously described. Various doses of ANVP compounds | were then added and relaxation of the precontracted state was monitored. | Data are expressed as the concentration of each peptide required to | produce a halfmaximal relaxation of the precontracted tissue (IC50).

| Compound | Peak Na+ Excr. (intact rats; dose 3670 pmol/kg) | Peak Urine Vol. (intact rats; dose 3670 pmol/kg) | IC50 [2] | other results |
| --- | --- | --- | --- | --- |
| CC[C@H](C)[C@@H]1NC(=O)[C@H](CCCNC(=N)N)NC(=O)[C@H](CC(N)=O)NC(=O)[C@H]([C@@H](C)CC)NC(=O)[C@H](CCCNC(=N)N)NC(=O)CNC(=O)CNC(=O)[C@H](Cc2ccccc2)NC(=O)[C@@H](NC(=O)[C@H](CO)NC(=O)[C@H](CO)NC(=O)[C@@H](N)CCCNC(=N)N)CSSC[C@@H](C(=O)N[C@@H](CC(N)=O)C(=O)N[C@@H](CO)C(=O)N[C@@H](Cc2ccccc2)C(=O)N[C@@H](CCCNC(=N)N)C(=O)N[C@@H](Cc2ccc(O)cc2)C(=O)O)NC(=O)CNC(=O)[C@H](CC(C)C)NC(=O)CNC(=O)[C@H](CO)NC(=O)[C@H](CCC(N)=O)NC(=O)[C@H](C)NC(=O)CNC1=O [[Asn^135]rANVP(126-150)] (H-RSSCFGGRINRIGAQSGLGCNSFRY-OH; disulfide 4-20) | – | – | – | Ki [1]: 33.9 nM |
| CC[C@H](C)[C@@H]1NC(=O)[C@H](CCCNC(=N)N)NC(=O)[C@H](CC(=O)O)NC(=O)[C@H]([C@@H](C)CC)NC(=O)[C@H](CCCNC(=N)N)NC(=O)CNC(=O)[C@@H](C)NC(=O)[C@H](Cc2ccccc2)NC(=O)[C@@H](NC(=O)[C@H](CO)NC(=O)[C@H](CO)NC(=O)[C@@H](N)CCCNC(=N)N)CSSC[C@@H](C(=O)N[C@@H](CC(N)=O)C(=O)N[C@@H](CO)C(=O)N[C@@H](Cc2ccccc2)C(=O)N[C@@H](CCCNC(=N)N)C(=O)N[C@@H](Cc2ccc(O)cc2)C(=O)O)NC(=O)CNC(=O)[C@H](CC(C)C)NC(=O)[C@@H](C)NC(=O)[C@H](CO)NC(=O)[C@H](CCC(N)=O)NC(=O)[C@H](C)NC(=O)CNC1=O [[D-Ala^131][D-Ala^142]rANVP(126-150), H-Arg-Ser-Ser-Cys-Phe-[D-Ala]Gly-Arg-Ile-Asp-Arg-Ile-Gly-Ala-Gln-Ser-[D-Ala]-Leu-Gly-Cys-Asn-Ser-Phe-Arg-Tyr-OH] (H-RSSCF[dA]GRIDRIGAQS[dA]LGCNSFRY-OH; disulfide 4-20) | 140 ± 8 µmol/min | 30 ± 7 µL/min | – | – |
| CC[C@H](C)[C@@H]1NC(=O)[C@H](CCCNC(=N)N)NC(=O)[C@H](CC(=O)O)NC(=O)[C@H]([C@@H](C)CC)NC(=O)[C@H](CCCNC(=N)N)NC(=O)CNC(=O)[C@@H](C)NC(=O)[C@H](Cc2ccccc2)NC(=O)[C@@H](NC(=O)[C@H](CO)NC(=O)[C@H](CO)NC(=O)[C@@H](N)CCCNC(=N)N)CSSC[C@@H](C(=O)N[C@@H](CC(N)=O)C(=O)N[C@@H](CO)C(=O)N[C@@H](Cc2ccccc2)C(=O)N[C@@H](CCCNC(=N)N)C(=O)N[C@@H](Cc2ccc(O)cc2)C(=O)O)NC(=O)CNC(=O)[C@H](CC(C)C)NC(=O)CNC(=O)[C@H](CO)NC(=O)[C@H](CCC(N)=O)NC(=O)[C@H](C)NC(=O)CNC1=O [[D-Ala^131]rANVP(126-150), H-Arg-Ser-Ser-Cys-Phe-[D-Ala]-Gly-Arg-Ile-Asp-Arg-Ile-Gly-Ala-Gln-Ser-Gly-Leu-Gly-Cys-Asn-Ser-Phe-Arg-Tyr-OH] | – | – | 0.9 nM | vasorelaxant potency in words [2]: most potent |
| CC[C@H](C)[C@@H]1NC(=O)[C@H](CCCNC(=N)N)NC(=O)[C@H](CC(=O)O)NC(=O)[C@H]([C@@H](C)CC)NC(=O)[C@H](CCCNC(=N)N)NC(=O)[C@@H](C)NC(=O)CNC(=O)[C@H](Cc2ccccc2)NC(=O)[C@@H](NC(=O)[C@H](CO)NC(=O)[C@H](CO)NC(=O)[C@@H](N)CCCNC(=N)N)CSSC[C@@H](C(=O)N[C@@H](CC(N)=O)C(=O)N[C@@H](CO)C(=O)N[C@@H](Cc2ccccc2)C(=O)N[C@@H](CCCNC(=N)N)C(=O)N[C@@H](Cc2ccc(O)cc2)C(=O)O)NC(=O)CNC(=O)[C@H](CC(C)C)NC(=O)CNC(=O)[C@H](CO)NC(=O)[C@H](CCC(N)=O)NC(=O)[C@H](C)NC(=O)CNC1=O [[D-Ala^132]rANVP(126-150), H-Arg-Ser-Ser-Cys-Phe-Gly-[D-Ala]-Arg-Ile-Asp-Arg-Ile-Gly-Ala-Gln-Ser-Gly-Leu-Gly-Cys-Asn-Ser-Phe-Arg-Tyr-OH] | 20 ± 5 µmol/min | 89 µL/min | – | – |
| CC[C@H](C)[C@@H]1NC(=O)[C@H](CCCNC(=N)N)NC(=O)[C@H](CC(=O)O)NC(=O)[C@@H](C(C)C)NC(=O)[C@H](CCCNC(=N)N)NC(=O)CNC(=O)CNC(=O)[C@H](Cc2ccccc2)NC(=O)[C@@H](NC(=O)[C@H](CO)NC(=O)[C@H](CO)NC(=O)[C@@H](N)CCCNC(=N)N)CSSC[C@@H](C(=O)N[C@@H](CC(N)=O)C(=O)N[C@@H](CO)C(=O)N[C@@H](Cc2ccccc2)C(=O)N[C@@H](CCCNC(=N)N)C(=O)N[C@@H](Cc2ccc(O)cc2)C(=O)O)NC(=O)CNC(=O)[C@H](CC(C)C)NC(=O)CNC(=O)[C@H](CO)NC(=O)[C@H](CCC(N)=O)NC(=O)[C@H](C)NC(=O)CNC1=O [[D-Val^134]rANVP(126-150), H-Arg-Ser-Ser-Cys-Phe-Gly-Arg-[D-Val]-Asp-Arg-Ile-Gly-Ala-Gln-Ser-Gly-Leu-Gly-Cys-Asn-Ser-Phe-Arg-Tyr-OH] | – | – | 13 nM | – |
| CC[C@H](C)[C@@H]1NC(=O)[C@H](CCCNC(=N)N)NC(=O)CNC(=O)CNC(=O)[C@H](Cc2ccccc2)NC(=O)[C@@H](NC(=O)[C@H](CO)NC(=O)[C@H](CO)NC(=O)[C@@H](N)CCCNC(=N)N)CSSC[C@@H](C(=O)N[C@@H](CC(N)=O)C(=O)N[C@@H](CO)C(=O)N[C@@H](Cc2ccccc2)C(=O)N[C@@H](CCCNC(=N)N)C(=O)N[C@@H](Cc2ccc(O)cc2)C(=O)O)NC(=O)CNC(=O)[C@H](CC(C)C)NC(=O)CNC(=O)[C@H](CO)NC(=O)[C@H](CCC(N)=O)NC(=O)[C@H](C)NC(=O)CNC(=O)[C@@H](C(C)C)NC(=O)[C@H](CCCNC(=N)N)NC(=O)[C@H](CC(=O)O)NC1=O [[D-Val^137]rANVP(126-150), H-Arg-Ser-Ser-Cys-Phe-Gly-Gly-Arg-Ile-Asp-Arg-[D-Val]-Gly-Ala-Gln-Ser-Gly-Leu-Gly-Cys-Asn-Ser-Phe-Arg-Tyr-OH] | 0.54 ± 0.3 µmol/min | 9.5 ± 5 µL/min | 40 nM | diuresis and natriuresis in intact rats, in words (intact rats; Table VII doses): exceptions |
| CC[C@H](C)[C@@H]1NC(=O)[C@H](CCCNC(=N)N)NC(=O)[C@H](CC(=O)O)NC(=O)[C@H]([C@@H](C)CC)NC(=O)[C@H](CCCNC(=N)N)NC(=O)[C@@H]2CCCN2C(=O)CNC(=O)[C@H](Cc2ccccc2)NC(=O)[C@@H](NC(=O)[C@H](CO)NC(=O)[C@H](CO)NC(=O)[C@@H](N)CCCNC(=N)N)CSSC[C@@H](C(=O)N[C@@H](CC(N)=O)C(=O)N[C@@H](CO)C(=O)N[C@@H](Cc2ccccc2)C(=O)N[C@@H](CCCNC(=N)N)C(=O)N[C@@H](Cc2ccc(O)cc2)C(=O)O)NC(=O)CNC(=O)[C@H](CC(C)C)NC(=O)CNC(=O)[C@H](CO)NC(=O)[C@H](CCC(N)=O)NC(=O)[C@H](C)NC(=O)CNC1=O [[Pro^132]rANVP(126-150), H-Arg-Ser-Ser-Cys-Phe-Gly-Pro-Arg-Ile-Asp-Arg-Ile-Gly-Ala-GLn-Ser-Gly-Leu-Gly-Cys-Asn-Ser-Phe-Arg-Tyr-OH] | 56 ± 20 µmol/min | 10.5 ± 2 µL/min | 3.25 nM | – |
| CC[C@H](C)[C@@H]1NC(=O)[C@H](CCCNC(=N)N)NC(=O)[C@H](CC(=O)O)NC(=O)[C@H](CCSC)NC(=O)[C@H](CCCNC(=N)N)NC(=O)CNC(=O)CNC(=O)[C@H](Cc2ccccc2)NC(=O)[C@@H](NC(=O)[C@H](CO)NC(=O)[C@H](CO)NC(=O)[C@@H](N)CCCNC(=N)N)CSSC[C@@H](C(=O)N[C@@H](CC(N)=O)C(=O)N[C@@H](CO)C(=O)N[C@@H](Cc2ccccc2)C(=O)O)NC(=O)CNC(=O)[C@H](CC(C)C)NC(=O)CNC(=O)[C@H](CO)NC(=O)[C@H](CCC(N)=O)NC(=O)[C@H](C)NC(=O)CNC1=O [hANVP(127-149)] (H-RSSCFGGRMDRIGAQSGLGCNSF-OH; disulfide 4-20) | – | – | – | Ki [1]: 2.45 nM |
| CC[C@H](C)[C@@H]1NC(=O)[C@H](CCCNC(=N)N)NC(=O)[C@H](CC(=O)O)NC(=O)[C@H]([C@@H](C)CC)NC(=O)[C@H](CCCNC(=N)N)NC(=O)CNC(=O)CNC(=O)[C@H](Cc2ccccc2)NC(=O)[C@@H](NC(=O)[C@H](CO)NC(=O)[C@H](CO)NC(=O)[C@@H](N)CCCNC(=N)N)CSSC[C@@H](C(=O)N[C@@H](CC(N)=O)C(=O)N[C@@H](CO)C(=O)N[C@@H](Cc2ccccc2)C(=O)N[C@@H](CCCNC(=N)N)C(=O)N[C@@H](Cc2ccc(O)cc2)C(N)=O)NC(=O)CNC(=O)[C@H](CC(C)C)NC(=O)CNC(=O)[C@H](CO)NC(=O)[C@H](CCC(N)=O)NC(=O)[C@H](C)NC(=O)CNC1=O [rANVP(126-150)-NH2, H-Arg-Ser-Ser-Cys-Phe-Gly-Gly-Arg-Ile-Asp-Arg-Ile-Gly-Ala-Gln-Ser-Glyn-Leu- Gly-Cys-Asn-Ser-Phe-Arg-Tyr-NH2] | – | – | 0.8 nM | Peak Na+ Excr. (intact rats; dose 367 pmol/kg): 57 µmol/min; Peak Urine Vol. (intact rats; dose 367 pmol/kg): 11.2 ± 1.6 µL/min; vasorelaxant potency in words [2]: most potent |
